Test results taken from US20220177902A1, “LOW-METHANE RICE” (priority 2019, published 2022).

System: methanogens
Assay: Methanogen propagation upon fumarate treatment of rice (qPCR methanogen determination)
Settings: SUSIBA2 rice and Nipponbare rice treated with fumarate for two weeks (from Week 6 to Week 8), groups Mst, MET, Msc, MBT, MMB, Arc
Description: FIG. 12. Response of methanogen propagation of different groups upon fumarate treatment for two weeks (from Week 6 to Week 8). Mst (Methanosaetaceae), MET (methanogens), Msc (Methanosarcinaceae), MBT (Methanobacteriales), MMB (Methanomicrobiales), Arc (archaea), and Met for Methanocella-specific.
Quantitative PCR was performed for both methanogen determination and rice gene expression in the same way as described in Su et al. (2015).
CRISPR/Cas technology was used to successfully delete the yin transcription factor (sucrose-response region) in the yin-yang system (Jin et al. (2017)) in rice to achieve larger panicles (FIG. 11). The increased panicle size meant that more carbon was reallocated to the panicles, which in turn led to less carbon to fumarate section from roots below ground.

O=C(O)/C=C/C(=O)O [fumarate]
Response of methanogen propagation of different groups upon fumarate treatment: all methanogen groups propagated
